# Test results: patent publication US6403587B1, “Heteroaryl-hexanoic acid amide derivatives, their preparation and their use as selective inhibitors of MIP-1-α binding to its CCR 1 receptor” (Pfizer Inc., priority 1997, dated 2002)
row,melting point [°C],Structure (SMILES)
1,131 to 135,"CC(C)(O)CC[C@H](C[C@H](O)[C@H](Cc1ccccc1)NC(=O)c1cnccc1C(F)(F)F)C(N)=O [Example 323, N-(1(S)-Benzyl-4(R)-carbamoyl-2(S),7-dihydroxy-7-methyl-octyl)-4-trifluoromethyl-nicotinamide]"
2,104 to 106,"CC(C)(O)CC[C@H](C[C@H](O)[C@H](Cc1ccc2ccccc2c1)NC(=O)c1cnc2ccccc2n1)C(N)=O [Example 333, Quinoxaline-2-carboxylic acid (4(R)-carbamoyl-2(S),7-dihydroxy-7-methyl-1(S)-naphthalen-2-ylmethyl-octyl)-amide]"
3,155 to 158,"CC(C)(O)CC[C@H](C[C@H](O)[C@H](Cc1cccc2ccccc12)NC(=O)c1cnc2ccccc2n1)C(N)=O [Example 331, Quinoxaline-2-carboxylic acid (4(R)-carbamoyl-2(S),7-dihydroxy-7-methyl-1(S)-naphthalen-1-ylmethyl-octyl)-amide]"
4,158 to 159,"CC(C)(O)CC[C@H](C[C@H](O)[C@H](Cc1cccs1)NC(=O)c1cnc2ccccc2n1)C(N)=O [Example 327, Quinoxaline-2-carboxylic acid (4(R)-carbamoyl-2(S),7-dihydroxy-7-methyl-1(S)-thiophen-2-ylmethyl-octyl)-amide]"
5,183 to 185,"CC(C)(O)CC[C@H](C[C@H](O)[C@H](Cc1cccc(F)c1)NC(=O)c1cnc2c(F)c(F)c(F)cc2c1)C(N)=O [Example 332, 6,7,8-Trifluoro-quinoline-3-carboxylic acid [4(R)-carbamoyl-1(S)-(3-fluoro-benzyl)-2(S),7-dihydroxy-7-methyl-octyl]-amide]"
6,147 to 148,"CC(C)(O)CC[C@H](C[C@H](O)[C@H](Cc1ccccc1F)NC(=O)c1cnc2ccccc2n1)C(N)=O [Example 328, Quinoxaline-2-carboxylic acid [4(R)-carbamoyl-1(S)-(2-fluoro-benzyl)-2(S),7-dihydroxy-7-methyl-octyl]-amide]"
7,98 to 100,"CC(C)(O)CC[C@H](C[C@H](O)[C@H](Cc1cc(F)cc(F)c1)NC(=O)c1cnc2ccccc2n1)C(=O)NO [Example 320, Quinoxaline-2-carboxylic acid [1(S)-(3,5-difluoro-benzyl)-2(S),7-dihydroxy-4(R)-hydroxycarbamoyl-7-methyl-octyl]-amide]"
8,163 to 164,"CC(C)(O)CC[C@H](C[C@H](O)[C@H](Cc1csc2ccccc12)NC(=O)c1cnc2ccccc2n1)C(N)=O [Example 335, Quinoxaline-2-carboxylic acid (1(S)-benzo[b]thiophen-3-ylmethyl-4(R)-carbamoyl-2(S),7-dihydroxy-7-methyl-octyl)-amide]"
9,110 to 120,"CC(C)(O)CC[C@H](C[C@H](O)[C@H](Cc1ccc(F)c(F)c1)NC(=O)c1cnc2ccccc2n1)C(N)=O [Example 330, Quinoxaline-2-carboxylic acid [4(R)-carbamoyl-1(S)-(3,4-difluoro-benzyl)-2(S),7-dihydroxy-7-methyl-octyl]-amide]"
10,190.5 to 191.5,"NC(=O)C(Cc1ccc(O)cc1)CC(O)C(Cc1ccccc1)NC(=O)c1cnc2ccccc2n1 (stereo not shown) [Example 336, Quinoxaline-2-carboxylic acid [1-benzyl-4-carbamoyl-2-hydroxy-5-(4-hydroxy-phenyl)-pentyl]-amide]"
11,130 to 131,"CC(C)(O)CC[C@H](C[C@H](O)[C@H](Cc1ccccc1F)NC(=O)c1cnc2ccccc2n1)C(=O)NO [Example 326, Quinoxaline-2-carboxylic acid [1(S)-(2-fluoro-benzyl)-2(S),7-dihydroxy4(R)-hydroxycarbamoyl-7-methyl-octyl]-amide]"
12,150 to 153,"CC(C)(O)CC[C@H](C[C@H](O)[C@H](Cc1ccc(F)c(F)c1)NC(=O)c1cnc2ccccc2n1)C(=O)NO [Example 329, Quinoxaline-2-carboxylic acid [1(S)-(3,4-difluoro-benzyl)-2(S),7-dihydroxy-4(R)-hydroxycarbamoyl-7-methyl-octyl]-amide]"
13,162 to 163,"CC(C)(O)CC[C@H](C[C@H](O)[C@H](Cc1cc(F)cc(F)c1)NC(=O)c1cnc2ccccc2n1)C(N)=O [Example 315, Quinoxaline-2-carboxylic acid [4(R)-carbamoyl-1(S)-(3,5-difluoro-benzyl)-2(S),7-dihydroxy-7-methyl-octyl]-amide]"
